Laboratory results from ChEMBL document CHEMBL2034929, “A specific molecular beacon probe for the detection of human prostate cancer cells” (Bioorg Med Chem Lett, 2012).

Assays:
[1] = Drug metabolism in human LNCAP cells at 10 uM after 26 hrs by UV-VIS spectrophotometry; type: ADME, cell-based; conditions: read-out: Drug metabolism
[2] = Drug metabolism in human RWPE1 cells at 10 uM after 26 hrs by UV-VIS spectrophotometry; type: ADME, cell-based, RWPE-1; conditions: read-out: Drug metabolism
[3] = Drug metabolism in 0.10 M tris-maleate buffer at pH 8 assessed as increase in fluorescence at 10 uM after 5 hrs by UV-VIS spectrophotometry in presence of porcine liver carboxylesterase relative to control; type: physicochemical; conditions: pig, pH 8, 5 h
[4] = Drug metabolism in 0.10 M tris-maleate buffer at pH 8 assessed as formation of N-[4-[(1E)-2-[4-(dimethylamino)phenyl]diazenyl]benzoyl]-glycine by mass spectrometry in presence of porcine liver carboxylesterase; type: physicochemical; conditions: pig
LNCaP [5] = test: Drug metabolism in human LNCAP cell lysates at 10 uM after 26 hrs by fluorescence analysis relative to human RWPE1 cells; type: ADME, cell-based, Lysate
LNCaP [6] = test: Drug metabolism in human LNCAP cell lysates at 10 uM after 10 days by fluorescence analysis; type: ADME, cell-based, Lysate; conditions: 240 h
LNCaP [7] = test: Drug metabolism in human LNCAP cells at 10 uM after 30 mins by fluorescence microscopy; type: ADME, cell-based; conditions: 0.5 h
[8] = Drug metabolism in human RWPE1 cells at 10 uM after 30 mins by fluorescence microscopy; type: ADME, cell-based; conditions: rwpe-1, 0.5 h
[9] = Drug metabolism in 0.10 M tris-maleate buffer at pH 8 assessed as formation of 2-[3-[[(3'6'-Dihydroxy-3-oxospiro[isobenzofuran-1(3H), 9'-[9H]xanthen]-6-yl)carbonyl]amino]-1-propyn-1-yl]-benzenemethanol by mass spectrometry in presence of porcine liver carboxylesterase; type: physicochemical; conditions: pig
LNCaP [10] = test: Drug metabolism in human LNCAP cell lysates at 10 uM after 26 hrs by fluorescence analysis relative to untreated human RWPE1 cells; type: ADME, cell-based, Lysate
LNCaP [11] = test: Drug metabolism in human LNCAP cell lysates assessed as formation of N-[4-[(1E)-2-[4-(dimethylamino)phenyl]diazenyl]benzoyl]-glycine; type: ADME, cell-based, Lysate
LNCaP [12] = test: Drug metabolism in human LNCAP cell lysates assessed as formation of 2-[3-[[(3'6'-Dihydroxy-3-oxospiro[isobenzofuran-1(3H), 9'-[9H]xanthen]-6-yl)carbonyl]amino]-1-propyn-1-yl]-benzenemethanol; type: ADME, cell-based, Lysate
LNCaP [13] = test: Drug metabolism in human LNCAP cell lysates at 10 uM after 26 hrs by UV-VIS spectrophotometry relative to human RWPE1 cells; type: ADME, cell-based, Lysate

CN(C)c1ccc(/N=N/c2ccc(C(=O)NCC(=O)OCc3ccccc3C#CCNC(=O)c3ccc4c(c3)C3(OC4=O)c4ccc(O)cc4Oc4cc(O)ccc43)cc2)cc1
metabolised at 26 h, 10 µM [1]: 29%
metabolised at 26 h, 10 µM [2]: 10%
fold change (FC) [3]: 23
Drug metabolism [4]: Active
fold change (FC) (LNCaP [5]): 3.8
Drug metabolism (LNCaP [6]): Active
Drug metabolism (LNCaP [7]): Active
Drug metabolism [8]: Not Active
Drug metabolism [9]: Active
fold change (FC) (LNCaP [10]): 30.8
Drug metabolism (LNCaP [11]): Active
Drug metabolism (LNCaP [12]): Active
fold change (FC) (LNCaP [13]): 2.9
